This note sets out measurements from US8785459B2, “Quinazoline compounds as kinase inhibitors” (Development Center for Biotechnology, priority 2011, dated 2014).

Experiment [1] concerns the target B-Raf (Homo sapiens (Human), UniProt P15056). Kind of experiment: Raf kinase assay (B-Raf), [33P] incorporation into MEK1(K97R). It counts as biochemical. The settings on record: for inhibition at 1 µM: 1.0 μM compound, read-out: B-Raf inhibition at 1.0 μM. In a few lines:
(§1)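 [33P] transfer to kinase-dead MEK1(K97R) substrate (500 ng) measured after 30 min at 30 °C in Tris pH 7.5 buffer containing 8 μM ATP. Enzyme inputs were 2 ng for C-Raf and 5 ng for B-Raf and B-Raf V600E. Duplicate 3-fold serial dilutions gave the half-maximal inhibitory concentration.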

In experiment [2] the target is C-Raf (Homo sapiens (Human), UniProt P04049). Kind of experiment: Raf kinase assay (C-Raf), [33P] incorporation into MEK1(K97R). It counts as biochemical. The method, boiled down: as §1
Sequence of C-Raf (P04049 whole entry): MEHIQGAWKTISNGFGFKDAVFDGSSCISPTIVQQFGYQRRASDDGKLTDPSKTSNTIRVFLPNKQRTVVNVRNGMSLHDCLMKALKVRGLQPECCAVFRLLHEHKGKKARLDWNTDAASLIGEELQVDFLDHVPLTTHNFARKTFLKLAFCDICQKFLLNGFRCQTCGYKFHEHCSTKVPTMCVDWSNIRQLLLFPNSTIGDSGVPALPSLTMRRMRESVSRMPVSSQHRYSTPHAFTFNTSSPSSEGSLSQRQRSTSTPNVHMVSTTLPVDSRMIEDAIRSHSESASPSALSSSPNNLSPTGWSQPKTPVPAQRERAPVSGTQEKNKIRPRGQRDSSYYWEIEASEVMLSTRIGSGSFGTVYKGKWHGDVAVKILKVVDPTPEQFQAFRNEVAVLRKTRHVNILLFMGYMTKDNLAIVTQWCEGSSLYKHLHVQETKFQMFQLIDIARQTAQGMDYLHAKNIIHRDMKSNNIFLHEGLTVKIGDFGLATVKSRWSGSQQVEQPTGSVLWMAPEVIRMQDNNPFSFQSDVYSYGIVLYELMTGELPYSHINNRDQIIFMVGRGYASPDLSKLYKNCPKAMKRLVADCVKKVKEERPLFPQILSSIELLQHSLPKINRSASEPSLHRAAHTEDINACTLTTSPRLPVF
Experiment [3] has as its target VEGFR2 kinase (Homo sapiens (Human), UniProt P35968). As to the kind of experiment: VEGFR2 kinase assay. It counts as biochemical. Here is the method:
Inhibition of VEGFR2 kinase activity by compounds disclosed herein was quantified by measuring the amount of [^33P] incorporated into the substrate in the presence of a test compound. […] The reaction was then stopped by adding 5 μL of 3% phosphoric acid solution. The resultant solution was transferred to and harvested by a filter plate (UniFilter-96 GF/B, PerkinElmer). The filter plate was then washed 20 times with d.d. H2O for 5 min followed by the addition of 30 μL of MicroScint™-20 Cocktail (PerkinElmer). After the plate was sealed, the retained radioactivity on the filter was counted using a TopCount™ scintillation detector (PerkinElmer). […]

Experiment [4] addresses B-Raf (V600E) (Homo sapiens (Human), UniProt P15056, V600E). As to the kind of experiment: Raf kinase assay (B-Raf (V600E)), [33P] incorporation into MEK1(K97R). It counts as biochemical. The method, boiled down:
as §1

The target in experiment [5] is EGFR kinase (Homo sapiens (Human), UniProt P00533). Kind of experiment: EGFR kinase assay. It counts as biochemical. Here is the method:
Inhibition of EGFR kinase activity by compounds disclosed herein is quantified by measuring the amount of [^33P] incorporated into the substrate in the presence of a test compound. Briefly, a reaction mixture of 25 μL final volume containing 25 ng of EGFR kinase (EGFR kinase domain alone, Millipore), 3 μg of the substrate [poly(Glu-Tyr), Sigma], kinase reaction buffer (10 mM MOPS pH 7.0, 0.3 mM EDTA, 0.5% glycerol, 0.001% Brij-35, 10 mM MnCl2, 0.1 mg/ml BSA, 100 μM ATP, 0.1 μCi per well [^33P]-γ-ATP (2,500-3,000 Ci/mmol)), and a test compound (100 nM, diluted with 4% DMSO) or DMSO (as the control) was incubated at 30° C. for 30 minutes. The reaction was stopped by adding 5 μL of 3% phosphoric acid solution. The resultant reaction solution was then harvested onto a filter plate (UniFilter-96 GF/B, PerkinElmer), washed 20 times for 5 min with d.d. H2O, and followed by the addition of 30 μL of MicroScint™-20 Cocktail (PerkinElmer). The radioactivity retained on the filter membrane was measured by TopCount™ scintillation detector (PerkinElmer). The results were analyzed by using linear regression software (GraphPad Prism™ 4; GraphPad Software Inc.). IC50 value is defined as the concentration of the test compound which achieves a half-maximal inhibition of the kinase activity.

Experiment [6] has as its target FLT3 kinase (Homo sapiens (Human), UniProt P36888). Kind of experiment: FLT3 kinase assay. It counts as biochemical. As for the experimental part:
Inhibition of FLT3 kinase activity by compounds disclosed herein was quantified by measuring the amount of [^33P] incorporated into the substrate in the presence of a test compound. Briefly, a reaction mixture of 25 μL final volume containing 5 ng of Flt3 kinase (obtained by purifying recombinant N-terminal 6×His-tagged Flt3 kinase domain construct expressed from baculovirus), 5 μg of the substrate (Poly(Glu-Tyr, 4:1, Sigma)), kinase reaction buffer (20 mM MOPS pH 7.0, 1 mM EDTA, 5% glycerol, 0.01% Brij-35, 0.1% β-mercaptoethanol, 1 mg/mL BSA, 100 μM ATP, 0.1 μCi per well [^33P]-γ-ATP (2,500-3,000 Ci/mmol)), and a test compound (100 nM, diluted with 4% DMSO) or DMSO (as the control) was incubated at 30° C. for 30 minutes. The reaction was stopped by adding 5 μL of 3% phosphoric acid solution. The resultant reaction solution was then harvested onto a filter plate (UniFilter-96 GF/B, PerkinElmer), washed 20 times for 5 min with d.d. H2O, and followed by the addition of 30 μL of MicroScint™-20 Cocktail (PerkinElmer). The plate was then sealed and counted using a TopCount™ scintillation detector (PerkinElmer). IC50 value is defined as the concentration of the test compound which achieves a half-maximal inhibition of the kinase activity.

Experiment [7] has as its target FGFR1 kinase (Homo sapiens (Human), UniProt P11362). Kind of experiment: FGFR1 kinase assay. It counts as biochemical. Here is the method: Inhibition of FGFR1 kinase activity by compounds disclosed herein was quantified by measuring the amount of [^33P] incorporated into the substrate in the presence of a test compound. Briefly, a reaction mixture of 25 μL final volume containing 1 ng of FGFR1 kinase (FGFR1 kinase domain alone, Millipore), 5 μg of the substrate [poly(Glu-Tyr), Sigma], kinase reaction buffer (14 mM MOPS pH 7.0, 0.2 mM EDTA, 0.5% glycerol, 0.001% Brij-35, 0.01% β-mercaptoethanol, 0.1 mg/ml BSA, 100 μM ATP, 0.1 μCi per well [^33P]-γ-ATP (2,500-3,000 Ci/mmol)), and a test compound (100 nM, diluted with 4% DMSO) or DMSO (as the control) was incubated at 30° C. for 60 minutes. The reaction was stopped by adding 5 μL of 3% phosphoric acid solution. The resultant reaction solution was then harvested onto a filter plate (UniFilter-96 GF/B, PerkinElmer), washed 20 times for 5 min with d.d. H2O, and followed by the addition of 30 μL of MicroScint™-20 Cocktail (PerkinElmer). The radioactivity retained on the filter membrane was measured by TopCount™ scintillation detector (PerkinElmer). The results were analyzed by using linear regression software (GraphPad Prism™ 4; GraphPad Software Inc.). IC50 value is defined as the concentration of the test compound which achieves a half-maximal inhibition of the kinase activity.

The test system of experiment [8] is COLO205. As to the kind of experiment: Anti-proliferative activity, CellTiter-96 assay, COLO205. It counts as cell-based. The settings on record: Homo sapiens, COLO 205, COLO205 cells, 72 hours incubation. In a few lines: (§2)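 Cells in DMEM with 10% FCS at 37° C., 5% CO2, plated at 2000 cells/well for 24 h, then exposed to graded compound concentrations for 72 h. CellTiter-96 Aqueous One reagent added for 4.0 h; viability read as absorbance at 490 nm.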

In experiment [9] the test system is A375. As to the kind of experiment: Anti-proliferative activity, CellTiter-96 assay, A375. The experiment is classed as cell-based. The settings on record: Homo sapiens, A-375, A375 cells, 72 hours incubation. The method, boiled down: as §2
The test system of experiment [10] is A549. As to the kind of experiment: Anti-proliferative activity, CellTiter-96 assay, A549. The experiment is classed as cell-based. Particulars: Homo sapiens, A549 cells, 72 hours incubation. In a few lines: as §2
Experiment [11] has as its system MDA-MB-231. Kind of experiment: Anti-proliferative activity, CellTiter-96 assay, MDA-MB-231. It counts as cell-based. The settings on record: Homo sapiens, MDA-MB-231 cells, 72 hours incubation. In a few lines:
as §2

One may read the IC50 as the concentration at which inhibition is half-maximal. A higher IC50 goes with a need for much substance. Usually inhibition stands for the drop in the measured response relative to a control, in per cent.

Sequence of B-Raf (V600E) (P15056 whole entry V600E): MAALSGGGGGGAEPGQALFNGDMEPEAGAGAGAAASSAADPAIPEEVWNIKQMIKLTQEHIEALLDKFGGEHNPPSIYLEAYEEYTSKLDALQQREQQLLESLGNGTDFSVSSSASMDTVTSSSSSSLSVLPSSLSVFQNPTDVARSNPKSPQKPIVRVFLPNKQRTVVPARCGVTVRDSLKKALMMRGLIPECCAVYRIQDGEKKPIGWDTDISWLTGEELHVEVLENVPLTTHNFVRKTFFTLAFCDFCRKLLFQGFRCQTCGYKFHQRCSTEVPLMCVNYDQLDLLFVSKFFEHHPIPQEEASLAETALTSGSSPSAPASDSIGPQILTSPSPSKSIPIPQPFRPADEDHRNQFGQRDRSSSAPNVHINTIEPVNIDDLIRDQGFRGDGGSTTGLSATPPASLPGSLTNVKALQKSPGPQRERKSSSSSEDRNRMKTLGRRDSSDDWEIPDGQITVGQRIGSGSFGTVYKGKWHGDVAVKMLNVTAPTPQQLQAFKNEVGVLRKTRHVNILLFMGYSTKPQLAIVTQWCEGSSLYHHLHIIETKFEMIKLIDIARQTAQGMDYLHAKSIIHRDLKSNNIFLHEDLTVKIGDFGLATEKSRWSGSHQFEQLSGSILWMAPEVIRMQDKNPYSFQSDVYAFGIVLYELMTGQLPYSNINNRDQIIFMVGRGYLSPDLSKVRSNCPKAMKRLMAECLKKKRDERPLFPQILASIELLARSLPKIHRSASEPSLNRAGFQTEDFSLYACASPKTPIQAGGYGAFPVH
Sequence of B-Raf (P15056 whole entry): as the sequence (P15056 whole entry V600E) above, with E600V counted along it
Sequence of FGFR1 kinase (P11362 478-767): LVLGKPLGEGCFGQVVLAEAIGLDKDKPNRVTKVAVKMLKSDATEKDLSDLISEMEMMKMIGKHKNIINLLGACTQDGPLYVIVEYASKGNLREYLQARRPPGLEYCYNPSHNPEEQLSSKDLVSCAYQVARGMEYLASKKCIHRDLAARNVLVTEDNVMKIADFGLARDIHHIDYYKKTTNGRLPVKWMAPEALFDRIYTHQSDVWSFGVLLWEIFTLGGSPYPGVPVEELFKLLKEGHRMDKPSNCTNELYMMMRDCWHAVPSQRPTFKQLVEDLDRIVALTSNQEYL
Sequence of VEGFR2 kinase (P35968 834-1162): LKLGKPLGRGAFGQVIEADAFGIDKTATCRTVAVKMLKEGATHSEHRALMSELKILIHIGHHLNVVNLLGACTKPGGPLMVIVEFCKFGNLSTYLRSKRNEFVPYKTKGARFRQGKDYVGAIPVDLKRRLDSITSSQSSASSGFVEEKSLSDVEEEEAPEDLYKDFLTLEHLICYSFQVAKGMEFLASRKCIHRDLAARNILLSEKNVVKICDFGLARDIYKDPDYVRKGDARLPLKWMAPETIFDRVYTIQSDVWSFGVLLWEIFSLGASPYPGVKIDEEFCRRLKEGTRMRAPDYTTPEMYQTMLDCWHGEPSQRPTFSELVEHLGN
Sequence of EGFR kinase (P00533 712-979): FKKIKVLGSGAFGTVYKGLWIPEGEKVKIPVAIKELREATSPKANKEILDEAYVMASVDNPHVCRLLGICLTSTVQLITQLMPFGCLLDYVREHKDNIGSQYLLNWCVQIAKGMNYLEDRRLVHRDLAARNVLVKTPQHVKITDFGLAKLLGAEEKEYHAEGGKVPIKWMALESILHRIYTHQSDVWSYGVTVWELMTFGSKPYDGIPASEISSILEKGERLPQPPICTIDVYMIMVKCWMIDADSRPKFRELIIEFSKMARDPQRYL
Sequence of FLT3 kinase (P36888 610-943): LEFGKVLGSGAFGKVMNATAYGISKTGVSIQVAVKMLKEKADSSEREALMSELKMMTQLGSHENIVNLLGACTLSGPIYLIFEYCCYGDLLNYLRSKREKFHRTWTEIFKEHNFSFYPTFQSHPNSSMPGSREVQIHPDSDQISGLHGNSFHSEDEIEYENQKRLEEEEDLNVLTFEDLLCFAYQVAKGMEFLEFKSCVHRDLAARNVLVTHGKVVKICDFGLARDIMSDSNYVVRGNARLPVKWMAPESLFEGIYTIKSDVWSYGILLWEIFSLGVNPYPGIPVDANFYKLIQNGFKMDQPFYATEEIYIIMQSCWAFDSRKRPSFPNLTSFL

On to `COc1cc(-c2ccc3ncnc(Nc4ccc(O)cc4)c3c2)ccc1O` [Compound 19, 4-(4-(4-hydroxyphenylamino)quinazolin-6-yl)-2-methoxyphenol], for which the IC50 in experiment [1] is 557 nM; in experiment [2] it was 503 nM; in [3], 5400 nM; in experiment [4], 522 nM; in experiment [5], 56.4 nM; in experiment [6], 146 nM. The same compound yielded an IC50 in experiment [7] of 1440 nM. Also, in experiment [1], the inhibition at 1 µM was 55.8%.

For the compound `COc1cc(-c2ccc3ncnc(Nc4ccc(F)c(O)c4)c3c2)ccc1O` [Compound 161, 4-(4-(4-fluoro-3-hydroxyphenylamino)quinazolin-6-yl)-2-methoxyphenol], the half-inhibitory concentration (IC50) in [1] worked out at 16.9 nM; in experiment [2], 133 nM; in experiment [4] it was 23.4 nM; in [8], 5.2 ± 1.8 µM; in [9], 1000 ± 100 nM; in experiment [10], 1500 ± 300 nM. The IC50 in [11] was 2100 ± 500 nM. The inhibition at 1 µM in experiment [1] came out at 94.7%.

`COc1cc(-c2ccc3ncnc(Nc4ccc(F)c(O)c4F)c3c2)ccc1O` [Compound 162, 2,6-difluoro-3-(6-(4-hydroxy-3-methoxyphenyl)quinazolin-4-ylamino)phenol]: the IC50 in experiment [1] worked out at 2.9 nM; in experiment [2], 197 nM; in experiment [4], 4.5 nM; in experiment [8] it was 5.1 ± 1.4 µM; in experiment [9] it was 1500 ± 100 nM; in experiment [10], 2400 ± 700 nM. Further, the concentration for half-maximal inhibition (IC50) in [11] came to 2100 ± 100 nM. In addition, in [1], the inhibition at 1 µM is 94.6%.

With `Oc1c(F)ccc(Nc2ncnc3ccc(-c4ccc5[nH]ncc5c4)cc23)c1F` [Compound 163, 3-(6-(1H-indazol-5-yl)quinazolin-4-ylamino)-2,6-difluorophenol], the IC50 stood at 2.4 nM in [1]; 256 nM in experiment [2]; 4.5 nM in [4]; 15.7 ± 2 µM in [8]; 4100 ± 700 nM in experiment [9]; 26000 ± 3200 nM in [10]. The compound further yielded a half-inhibitory concentration (IC50) in [11] of 17800 ± 200 nM. Further, in experiment [1], the inhibition at 1 µM stood at 94.2%.
